Measured values: ChEMBL document CHEMBL1201862, “PubChem BioAssay data set” (2004)
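All cell lines were grown in 96-well plates and treated with compound for 48 hours. The concentration for 50% growth inhibition is given as GI50.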 The source made the active and inactive calls. Cut-off read from the data, not from the text of the source: active = GI50 up to about 1.1 µM and inactive = higher.

Legend:
Assay in all cases: NCI anticancer screen, dose series, 48 h
[1] = test system: DLD-1
[2] = test system: DMS-273
[3] = test system: HOP-18
[4] = test system: KM-20L2
[5] = test system: LXFL 529
[6] = test system: M19-MEL
[7] = test system: RXF 631
[8] = test system: SNB-78
[9] = test system: XF498

Measured: GI50

BrC1=CC=C2NC=CC3=CC=NC1C32 (centres undefined)
inactive: [1] 19 µM | [2] 7.14 µM | [3] 14.1 µM | [4] 19.7 µM | [5] 19.5 µM | [6] 14.1 µM | [7] 27.2 µM | [8] 29.6 µM | [9] 22.9 µM
